# From PMC10411619 (Chemical Science, 2023)
# Target: cyt P460 (Nitrosomonas europaea, UniProt Q50927)
# Assay: biochemical
# cyt P460, sequence (Q50927 27-198): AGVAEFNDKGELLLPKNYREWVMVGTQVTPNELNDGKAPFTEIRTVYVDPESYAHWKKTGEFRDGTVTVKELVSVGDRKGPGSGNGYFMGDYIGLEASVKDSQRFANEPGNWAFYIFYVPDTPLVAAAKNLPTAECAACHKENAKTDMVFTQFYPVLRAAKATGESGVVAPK
compound,measurement,value
NO [NH2OH],Kd,30 ± 0.7 mM
